Assay results taken from ChEMBL document CHEMBL1201862, “PubChem BioAssay data set” (2004).
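Five concentrations, 48 hours, 96-well plates. The concentration for 50% growth inhibition is given as GI50.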 Activity calls are given as the source filed them. No stated cut-off is given here; in the data, active = GI50 up to about 1.1 µM and inactive = higher.

How the values were obtained:
Test in all cases: NCI-60 cell line screen, 48 h
BT-549 = system: BT-549
EKVX = system: EKVX
HCC 2998 = system: HCC 2998
HL-60 = system: HL-60
HOP-92 = system: HOP-92
Hs-578T = system: Hs-578T
MDA-N = system: MDA-N
MOLT-4 = system: MOLT-4
Malme-3M = system: Malme-3M
NCI-H23 = system: NCI-H23
NCI-H460 = system: NCI-H460
OVCAR-5 = system: OVCAR-5
OVCAR-8 = system: OVCAR-8
PC-3 = system: PC-3
RPMI-8226 = system: RPMI-8226
SF-295 = system: SF-295
SK-MEL-28 = system: SK-MEL-28
SK-OV-3 = system: SK-OV-3
SNB-75 = system: SNB-75
UACC-257 = system: UACC-257

Compound | GI50 (BT-549) | GI50 (EKVX) | GI50 (HCC 2998) | GI50 (HL-60) | GI50 (HOP-92) | GI50 (Hs-578T) | GI50 (MDA-N) | GI50 (MOLT-4) | GI50 (Malme-3M) | GI50 (NCI-H23) | GI50 (NCI-H460) | GI50 (OVCAR-5) | GI50 (OVCAR-8) | GI50 (PC-3) | GI50 (RPMI-8226) | GI50 (SF-295) | GI50 (SK-MEL-28) | GI50 (SK-OV-3) | GI50 (SNB-75) | GI50 (UACC-257)
CN1CCN(Cc2nc3cccc4c3c([n+]2[O-])-c2ccccc2-4)CC1 | 39 µM (inactive) | 31.4 µM (inactive) | 53 µM (inactive) | 33.1 µM (inactive) | 36 µM (inactive) | 34.9 µM (inactive) | 12.6 µM (inactive) | 12.4 µM (inactive) | 20.1 µM (inactive) | 26.8 µM (inactive) | 17.8 µM (inactive) | > 34.2 µM (inactive) | 12.9 µM (inactive) | 11.4 µM (inactive) | 20.7 µM (inactive) | 41 µM (inactive) | 31.7 µM (inactive) | 59.3 µM (inactive) | 33 µM (inactive) | 24.4 µM (inactive)
CCCC(=O)O[C@H]1C=C2C[C@@]34SS[C@]5(CC6=C[C@H](OC(C)=O)[C@@H]7O[C@@H]7[C@H]6N5C3=O)C(=O)N4[C@@H]2[C@H]2O[C@H]21 | 0.021 µM (active) | 0.0178 µM (active) | 0.00923 µM (active) | 0.0644 µM (active) | 0.02 µM (active) | 0.0203 µM (active) | 0.00817 µM (active) | 0.00904 µM (active) | 0.02 µM (active) | 0.0241 µM (active) | 0.0218 µM (active) | 0.0112 µM (active) | 0.00644 µM (active) | 0.0199 µM (active) | 0.00524 µM (active) | 0.329 µM (active) | 0.0251 µM (active) | 0.0569 µM (active) | 0.0353 µM (active) | 0.0181 µM (active)
Cc1cc(NS(=O)(=O)c2ccc(Nc3c4ccccc4nc4c(C(=O)NCCO)cccc34)cc2)no1 | 16.8 µM (inactive) | 60 µM (inactive) | 40.7 µM (inactive) | 37.9 µM (inactive) | 20.5 µM (inactive) | 21.2 µM (inactive) | 35.8 µM (inactive) | 7.41 µM (inactive) | 28.1 µM (inactive) | 39.2 µM (inactive) | 28.6 µM (inactive) | 13.3 µM (inactive) | 34.5 µM (inactive) | 39.2 µM (inactive) | 19.4 µM (inactive) | 38.7 µM (inactive) | 30.3 µM (inactive) | 35.6 µM (inactive) | 7.19 µM (inactive) | 75.3 µM (inactive)
O=C1NC(NNc2ccccc2)=N/C1=C\c1ccccc1O | 21 µM (inactive) | 66.8 µM (inactive) | 80.9 µM (inactive) | 28.8 µM (inactive) | 55 µM (inactive) | > 100 µM (inactive) | 71.3 µM (inactive) | 51.6 µM (inactive) | > 100 µM (inactive) | 39.1 µM (inactive) | 45.6 µM (inactive) | > 100 µM (inactive) | > 100 µM (inactive) | 33.6 µM (inactive) | 81.5 µM (inactive) | 50.2 µM (inactive) | > 100 µM (inactive) | > 100 µM (inactive) | 43.4 µM (inactive) | 40.9 µM (inactive)
c1ccc(-c2ccc(-c3cc4ccccc4[nH]3)cc2)cc1 | > 100 µM (inactive) | > 100 µM (inactive) | > 100 µM (inactive) | 27.8 µM (inactive) | > 100 µM (inactive) | > 100 µM (inactive) | > 100 µM (inactive) | > 100 µM (inactive) | > 100 µM (inactive) | > 100 µM (inactive) | > 100 µM (inactive) | > 100 µM (inactive) | > 100 µM (inactive) | > 100 µM (inactive) | > 100 µM (inactive) | > 100 µM (inactive) | > 100 µM (inactive) | > 100 µM (inactive) | > 100 µM (inactive) | > 100 µM (inactive)
O=C1O/C(=C(/Cl)c2cccc3ccccc23)c2ccccc21 | > 100 µM (inactive) | > 100 µM (inactive) | > 100 µM (inactive) | > 100 µM (inactive) | > 100 µM (inactive) | 32.4 µM (inactive) | > 100 µM (inactive) | > 100 µM (inactive) | > 100 µM (inactive) | > 100 µM (inactive) | > 100 µM (inactive) | > 100 µM (inactive) | > 100 µM (inactive) | > 100 µM (inactive) | > 100 µM (inactive) | 47 µM (inactive) | > 100 µM (inactive) | > 100 µM (inactive) | 22.2 µM (inactive) | > 100 µM (inactive)
CCCCCCCCCCCCCCCC(=O)N(CCCCCCCCCCC(=O)O)CC(O)C(O)C(OC1OC(CO)C(O)C(O)C1O)C(O)CO (stereo not given) | 25.4 µM (inactive) | 37.6 µM (inactive) | 21.1 µM (inactive) | 22.6 µM (inactive) | 41.3 µM (inactive) | 40.5 µM (inactive) | 34.7 µM (inactive) | 28.4 µM (inactive) | 19.5 µM (inactive) | 40.9 µM (inactive) | > 100 µM (inactive) | > 100 µM (inactive) | 27.1 µM (inactive) | 37.8 µM (inactive) | 29.2 µM (inactive) | 15.6 µM (inactive) | 18.5 µM (inactive) | 54.7 µM (inactive) | 38.9 µM (inactive) | 22 µM (inactive)
O=C1c2cccnc2-c2nccc3ccnc1c23 | 1.43 µM (inactive) | 1.58 µM (inactive) | 1.4 µM (inactive) | 0.0248 µM (active) | 0.687 µM (active) | 2.02 µM (inactive) | 0.2 µM (active) | 0.413 µM (active) | 0.853 µM (active) | 0.281 µM (active) | 0.0583 µM (active) | 2.07 µM (inactive) | 0.755 µM (active) | 1.36 µM (inactive) | 0.195 µM (active) | 1.29 µM (inactive) | 1.2 µM (inactive) | 1.49 µM (inactive) | 1.08 µM (active) | 0.964 µM (active)
